Test results: ChEMBL document CHEMBL5724914, “Linking interpersonal differences in gut microbiota composition and drug biotransformation activity” (2024)

How the values were obtained:
[1] = (§1) The drug is tested on Z-030 corresponding to mouse gut metagenome with ENA study accession number: PRJEB37062 and ENA sample accession number: ERS12561829 for biotransformation under anaerobic condition. The drug concentrations were measured over 9 timepoints collected between 0 and 24 hours of incubation by liquid-chromatography-coupled mass spectrometry (LC–MS); conditions: 2 µM
[2] = as §1, with “Z-017” for “Z-030”, “ERS12561816” for “ERS12561829”; conditions: 2 µM
[3] = as §1, with “WLS-350” for “Z-030”, “human” for “mouse”, “ERS12561789” for “ERS12561829”; conditions: 2 µM
[4] = as §1, with “WLS-310” for “Z-030”, “human” for “mouse”, “ERS12561785” for “ERS12561829”; conditions: 2 µM
[5] = as §1, with “WLS-170” for “Z-030”, “human” for “mouse”, “ERS12561762” for “ERS12561829”; conditions: 2 µM
[6] = as §1, with “WLS-086” for “Z-030”, “human” for “mouse”, “ERS12561752” for “ERS12561829”; conditions: 2 µM
[7] = as §1, with “WLS-069” for “Z-030”, “human” for “mouse”, “ERS12561748” for “ERS12561829”; conditions: 2 µM
[8] = as §1, with “WLS-039” for “Z-030”, “human” for “mouse”, “ERS12561746” for “ERS12561829”; conditions: 2 µM
[9] = as §1, with “WLS-010” for “Z-030”, “human” for “mouse”, “ERS12561743” for “ERS12561829”; conditions: 2 µM
[10] = human gut metagenome, 24 h, 2 µM
[11] = human gut metagenome, 24 h, 2 µM; remark: listed apart in the source
[12] = human gut metagenome, 24 h, 2 µM; remark: listed apart in the source
[13] = human gut metagenome, 24 h, 2 µM; remark: listed apart in the source
[14] = human gut metagenome, 24 h, 2 µM; remark: listed apart in the source
[15] = human gut metagenome, 24 h, 2 µM; remark: listed apart in the source
[16] = human gut metagenome, 24 h, 2 µM; remark: listed apart in the source
[17] = as §1, with “Z-028” for “Z-030”, “ERS12561827” for “ERS12561829”; conditions: 2 µM
[18] = as §1, with “Z-018” for “Z-030”, “pig” for “mouse”, “ERS12561817” for “ERS12561829”; conditions: 2 µM
[19] = as §1, with “Z-006” for “Z-030”, “ERS12561806” for “ERS12561829”; conditions: 2 µM
[20] = human gut metagenome, 24 h, 2 µM; remark: listed apart in the source
Note: call rule not given here.

SMILES	Bacterial Biotransformation [1]	Bacterial Biotransformation [2]	Bacterial Biotransformation [3]	Bacterial Biotransformation [4]	Bacterial Biotransformation [5]	Bacterial Biotransformation [6]	Bacterial Biotransformation [7]	Bacterial Biotransformation [8]	Bacterial Biotransformation [9]	Bacterial Biotransformation [10]	Bacterial Biotransformation [11]	Bacterial Biotransformation [12]	Bacterial Biotransformation [13]	Bacterial Biotransformation [14]	Bacterial Biotransformation [15]	Bacterial Biotransformation [16]	Bacterial Biotransformation [17]	Bacterial Biotransformation [18]	Bacterial Biotransformation [19]	Bacterial Biotransformation [20]
CN1CCc2cccc3c2[C@H]1Cc1ccc(O)c(O)c1-3 [APOMORPHINE]	Compound NOT metabolized	Compound NOT metabolized	Compound NOT metabolized	Compound NOT metabolized	Compound NOT metabolized	Compound NOT metabolized	Compound NOT metabolized	Compound NOT metabolized	Compound NOT metabolized	Compound NOT metabolized	Compound NOT metabolized	Compound NOT metabolized	Compound NOT metabolized	Compound NOT metabolized	Compound NOT metabolized	Compound NOT metabolized	–	–	–	–
CC(C)c1c(C(=O)Nc2ccccc2)c(-c2ccccc2)c(-c2ccc(F)cc2)n1CC[C@@H](O)C[C@@H](O)CC(=O)O [ATORVASTATIN]	Compound NOT metabolized	Compound NOT metabolized	Compound metabolized	Compound metabolized	Compound metabolized	Compound metabolized	Compound metabolized	Compound metabolized	–	Compound NOT metabolized	Compound NOT metabolized	Compound metabolized	Compound metabolized	Compound metabolized	Compound metabolized	Compound NOT metabolized	Compound NOT metabolized	Compound NOT metabolized	Compound NOT metabolized	Compound metabolized
C[C@@H]1CC[C@H]2[C@@H](C)C(=O)O[C@@H]3O[C@@]4(C)CC[C@@H]1[C@]32OO4 [ARTEMISININ]	Compound metabolized	–	–	Compound metabolized	Compound metabolized	Compound metabolized	Compound metabolized	Compound metabolized	Compound metabolized	–	Compound metabolized	Compound metabolized	Compound metabolized	Compound metabolized	Compound metabolized	Compound NOT metabolized	Compound metabolized	Compound metabolized	Compound NOT metabolized	Compound metabolized
C#C[C@]1(O)CC[C@H]2[C@@H]3CCC4=Cc5oncc5C[C@]4(C)[C@H]3CC[C@@]21C [DANAZOL]	Compound metabolized	–	–	Compound metabolized	–	Compound metabolized	Compound metabolized	Compound metabolized	Compound metabolized	–	Compound metabolized	–	–	Compound metabolized	Compound metabolized	Compound metabolized	Compound metabolized	–	Compound metabolized	–
COc1ccccc1N1CCN(CC(O)COc2cccc3ccccc23)CC1 (centres undefined) [NAFTOPIDIL]	–	Compound NOT metabolized	Compound NOT metabolized	Compound NOT metabolized	Compound NOT metabolized	Compound NOT metabolized	Compound NOT metabolized	Compound NOT metabolized	Compound NOT metabolized	Compound NOT metabolized	Compound NOT metabolized	Compound NOT metabolized	Compound NOT metabolized	Compound NOT metabolized	Compound NOT metabolized	Compound NOT metabolized	Compound metabolized	Compound NOT metabolized	Compound NOT metabolized	Compound NOT metabolized
CN1C(=O)CCS(=O)(=O)C1c1ccc(Cl)cc1 (centres undefined) [CHLORMEZANONE]	–	Compound NOT metabolized	Compound NOT metabolized	Compound NOT metabolized	Compound metabolized	Compound metabolized	Compound NOT metabolized	Compound NOT metabolized	Compound NOT metabolized	Compound NOT metabolized	Compound NOT metabolized	Compound NOT metabolized	Compound NOT metabolized	Compound metabolized	Compound NOT metabolized	Compound NOT metabolized	Compound NOT metabolized	Compound NOT metabolized	Compound NOT metabolized	Compound NOT metabolized
Cc1nc2n(c(=O)c1CCN1CCC(c3noc4cc(F)ccc34)CC1)CCCC2O (centres undefined) [PALIPERIDONE]	Compound metabolized	Compound NOT metabolized	Compound metabolized	Compound metabolized	Compound NOT metabolized	Compound metabolized	Compound metabolized	Compound metabolized	Compound metabolized	Compound metabolized	Compound metabolized	Compound metabolized	Compound metabolized	Compound metabolized	Compound metabolized	Compound metabolized	–	Compound NOT metabolized	–	Compound NOT metabolized
CNC(=C[N+](=O)[O-])NCCSCc1csc(CN(C)C)n1 [NIZATIDINE]	Compound metabolized	–	Compound NOT metabolized	Compound metabolized	Compound metabolized	Compound metabolized	Compound metabolized	Compound NOT metabolized	Compound NOT metabolized	Compound NOT metabolized	Compound metabolized	Compound metabolized	Compound metabolized	Compound metabolized	Compound NOT metabolized	Compound metabolized	Compound NOT metabolized	Compound NOT metabolized	Compound NOT metabolized	Compound NOT metabolized
